Test results as given in patent US20250230193A1, “CYCLIC COMPOUND HAVING SELECTIVE KRAS INHIBITORY EFFECT ON HRAS AND NRAS” (CHUGAI SEIYAKU KABUSHIKI KAISHA, priority 2022, published 2025).
Where a SMILES comes first, the peptide text is derived from it. Bridges are numbered along the chain shown (N, C = ends). [ ]: non-standard residue; d: D form. The star is where a group is joined. hPhe(3-Cl-4-CF3) = N[C@@H](CCc1ccc(C(F)(F)F)c(Cl)c1)C(=O)O; NPrPhe(4-CF3) = CCCN[C@@H](Cc1ccc(C(F)(F)F)cc1)C(=O)O; NMeGly(cPent) = CN[C@H](C(=O)O)C1CCCC1; Hyp = O=C(O)[C@@H]1C[C@@H](O)CN1; NMeL = CN[C@@H](CC(C)C)C(=O)O; Morpholide = C1CN(*)CCO1; Ac4c = NC1(C(=O)O)CCC1; NEtG = CCNCC(=O)O; Sar = CNCC(=O)O

Experiments:
[1] = target: GDP-bound NRAS wild-type protein (Homo sapiens, UniProt P01111); assay: Binding to NRAS by surface plasmon resonance (SPR), Single Cycle Kinetics; details: SPR
Chain of GDP-bound NRAS wild-type protein (P01111 whole entry): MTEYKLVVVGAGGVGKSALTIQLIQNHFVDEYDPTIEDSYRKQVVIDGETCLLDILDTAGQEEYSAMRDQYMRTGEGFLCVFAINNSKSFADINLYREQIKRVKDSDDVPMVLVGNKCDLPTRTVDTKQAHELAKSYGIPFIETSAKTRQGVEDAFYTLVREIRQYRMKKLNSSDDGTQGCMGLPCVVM

[2] = target: GDP-bound HRAS wild-type protein (Homo sapiens, UniProt P01112); assay: Binding to HRAS by surface plasmon resonance (SPR), Single Cycle Kinetics; details: SPR
Chain of GDP-bound HRAS wild-type protein (P01112 whole entry): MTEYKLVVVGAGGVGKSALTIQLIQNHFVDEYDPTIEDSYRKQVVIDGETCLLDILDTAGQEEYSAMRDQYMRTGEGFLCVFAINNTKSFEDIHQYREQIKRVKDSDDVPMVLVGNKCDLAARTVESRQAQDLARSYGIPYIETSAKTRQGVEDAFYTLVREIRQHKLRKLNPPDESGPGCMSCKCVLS

[3] = KD ratio, GDP-bound NRAS wild-type vs GDP-bound KRAS wild-type
[4] = KD ratio, GDP-bound HRAS wild-type vs GDP-bound KRAS wild-type

Row | SMILES | NRAS/KRAS (ratio of KD value with respect to NRAS to KD value with respect to KRAS) [1, 3] | HRAS/KRAS (ratio of KD value with respect to HRAS to KD value with respect to KRAS) [2, 4] | also measured
1 | CCO[C@@H]1C[C@H]2C(=O)NC3(CC(C)(C)C3)C(=O)N(C)[C@@H](C3CCCC3)C(=O)N(C)[C@H](C(=O)N(C)CC)CC(=O)N(C)[C@H]3CCCC/C=C/c4ccc(cc4)C[C@@H](C(=O)N(C)CC(=O)N[C@@H](CCc4cc(F)c(C(F)(F)F)c(F)c4)C(=O)N2C1)N1CC/C=C\C[C@@H](C1=O)N(C)C(=O)CN(C)C(=O)[C@H]([C@@H](C)CC)NC3=O [PP1829] | – | – | NRAS/KRAS (ratio of KD value for NRAS to KD value for KRAS) [1, 3]: A (a compound having 10 or more and less than 20 is denoted as A); HRAS/KRAS (ratio of KD value for HRAS to KD value for KRAS) [2, 4]: B (a compound having 3 or more and less than 10 is denoted as B)
2 | CCO[C@@H]1C[C@H]2C(=O)NC3(CCC3)C(=O)N(C)[C@@H](C3CCCC3)C(=O)N(C)[C@H](C(=O)N(C)C)CC(=O)N(C)[C@@H](CC)C(=O)N[C@@H]([C@@H](C)CC)C(=O)N(C)CC(=O)N(C)[C@H]3CCCCN(C3=O)[C@@H](Cc3ccc(C(F)(F)F)cc3)C(=O)N(C)CC(=O)N[C@@H](CCc3ccc(C(F)(F)F)c(C)c3)C(=O)N2C1 [PP0882] | C (A compound having a KD ratio of 0.1 or more and less than 3 is denoted as C) | B (a compound having 3 or more and less than 10 is denoted as B) | –
3 | CCO[C@@H]1C[C@H]2C(=O)NC3(CCC3)C(=O)N(C)[C@@H](C3CCCC3)C(=O)N(C)[C@H](C(=O)N(C)C)CC(=O)N(C)[C@@H](Cc3cccc(C#N)c3)C(=O)N[C@@H]([C@@H](C)CC)C(=O)N(C)CC(=O)N(C)[C@H]3CCCCCN(C3=O)[C@@H](Cc3ccc(C(F)(F)F)cc3)C(=O)N(C)CC(=O)N[C@@H](CCc3cc(F)c(C(F)(F)F)c(F)c3)C(=O)N2C1 [PP1172] | B (a compound having 3 or more and less than 10 is denoted as B) | B (a compound having 3 or more and less than 10 is denoted as B) | –
4 | CCCN1C(=O)CN(C)C(=O)CN(CC)C(=O)[C@H]([C@@H](C)CC)NC(=O)[C@H](CC(C)C)N(C)C(=O)C[C@@H](C(=O)N2CCOCC2)NC(=O)[C@H](C2CCCC2)N(C)C(=O)C2(CCC2)NC(=O)[C@@H]2C[C@@H](OCC)CN2C(=O)[C@H](CCc2ccc(C(F)(F)F)c(Cl)c2)NC(=O)CN(C)C(=O)[C@@H]1Cc1ccc(C(F)(F)F)cc1 [PP0336] ([NMeL]I[NEtG][Sar][NPrPhe(4-CF3)][Sar][hPhe(3-Cl-4-CF3)][Hyp](Et)[Ac4c][NMeGly(cPent)]D-Morpholide; lactam N-11) | – | – | NRAS/KRAS (ratio of KD for GDP-bound NRAS wild-type to KD for KRAS) [1]: B (a compound having 3 or more and less than 10 is denoted as B); HRAS/KRAS (ratio of KD for GDP-bound HRAS wild-type to KD for KRAS) [2]: B (a compound having 3 or more and less than 10 is denoted as B)
5 | CCO[C@@H]1C[C@H]2C(=O)NC3(CCC3)C(=O)N(C)[C@@H](C3CCCC3)C(=O)N(CCC3CCCC3)[C@H](C(=O)N(C)C)CC(=O)N(C)[C@@H](CC)C(=O)N[C@@H]([C@@H](C)CC)C(=O)N(C)CC(=O)N(C)[C@H]3C/C=C\CCN(C3=O)[C@@H](Cc3ccc(C(F)(F)F)cc3)C(=O)N(C)CC(=O)N[C@@H](CCc3cc(F)c(C(F)(F)F)c(F)c3)C(=O)N2C1 [PP0982] | AA (a compound having 20 or more is denoted as AA) | A (a compound having 10 or more and less than 20 is denoted as A) | –
6 | C=CCCC[C@H]1C(=O)N[C@@H]([C@@H](C)CC)C(=O)N(C)CC(=O)N(C)[C@H]2CCCCN(C2=O)[C@@H](Cc2ccc(C(F)(F)F)cc2)C(=O)N(C)CC(=O)N[C@@H](CCc2cc(F)c(C(F)(F)F)c(F)c2)C(=O)N2C[C@H](OCC)C[C@H]2C(=O)N[C@](C)(CC=C)C(=O)N(C)[C@@H](C2CCCC2)C(=O)N(C)[C@H](C(=O)N2CCOCC2)CC(=O)N1C [PP0876] | C (A compound having a KD ratio of 0.1 or more and less than 3 is denoted as C) | C (A compound having a KD ratio of 0.1 or more and less than 3 is denoted as C) | –
7 | CCCN1C(=O)CN(C)C(=O)CN(CC)C(=O)[C@H]([C@@H](C)CC)NC(=O)[C@H](CC(C)C)N(C)C(=O)C[C@@H](C(=O)N(C)C)NC(=O)[C@H](C2CCCC2)N(C)C(=O)C2(CCC2)NC(=O)[C@@H]2C[C@@H](OCC)CN2C(=O)[C@H](CCc2ccc(C(F)(F)F)c(Cl)c2)NC(=O)CN(C)C(=O)[C@@H]1Cc1ccc(C(F)(F)F)cc1 [PP0372] ([NMeL]I[NEtG][Sar][NPrPhe(4-CF3)][Sar][hPhe(3-Cl-4-CF3)][Hyp](Et)[Ac4c][NMeGly(cPent)]D-NMe2; lactam N-11) | – | – | NRAS/KRAS (ratio of KD for GDP-bound NRAS wild-type to KD for KRAS) [1]: B (a compound having 3 or more and less than 10 is denoted as B); HRAS/KRAS (ratio of KD for GDP-bound HRAS wild-type to KD for KRAS) [2]: B (a compound having 3 or more and less than 10 is denoted as B)
